Where two headings read alike, the source gives them in different places.
Experiments:
Format in all cases: cell-based, human
[1] = tested on: H1975; test: Non Small Cell Lung Cancer proliferation assay (Alamar Blue reduction), H1975; conditions: primary screening, 10 μM compound in 1% DMSO (v/v); for inhibition at 10 µM: Homo sapiens, NCI-H1975
Experimental: (§1) These cells have a doubling time of 1-2 days. All cell types are adherent and grow in colonies. The cells should be kept at a density between 50,000 cells/mL -500,000 cells/mL to provide for optimum growth and adequate nutrition. The cell line should be maintained at 37° C. in a humidified atmosphere with 5% CO2 in a sterile cell culture incubator.
(§2) Non Small Cell Lung Cancer Proliferation Assay.
(§3) High Controls for this assay are made by treating Non Small Cell Lung Cancer cells with 5 ul of 10% DMSO. [Final concentration in this assay is 1% DMSO].
(§4) Important Note: All compounds for testing in this assay should be done at the final concentration of 1% DMSO.
(§5) After addition, the cells are placed in cell culture incubator at 37° C. for 48 hours for complete treatment.
(§6) After drug treatment, cytotoxicity is measured by Alamar Blue reduction.
(§7) The cells are incubated for 48 hours at 37° C. to complete the Alamar Blue reduction.
(§8) The final step in the assay is to measure the amount of Alamar Blue reduction. […] The Alamar Blue fluorescence is measured at an excitation of 530 nm and emission of 590 nm.
(§9) For the NSCLC project, the cell based assay was screened against a small molecule library of approximately 200,000 compounds. The compound library is stored in our automated robotic freezer (Biophile) at −20° C. in 100% DMSO. Compound freeze and thaw cycles are kept to a minimum. […] This assay was performed on a fully automated linear track robotic platform (CRS F3 Robot System, Thermo Electron Corp., Ontario, Canada) utilizing several integrated peripherals for plate handling, liquid dispensing, and readout detection. […] The microplates are then placed at 37° C. for 48 hours to complete treatment of cells with compounds. Next, 5 ul of alamar blue was added using a liquid dispenser (Flexprop Precision Dispenser, Perkin Elmer, Mass., USA) and incubated for 48 hours at 37° C. The alamar blue prompt fluorescence was measured on Victor V (Victor^3 V, Perkin Elmer, Mass., USA) and output data files were loaded into ORIS (Oncology Research Informatics System, MSKCC, NY, USA), a screening data acquisition and analysis platform.
(§10) The dose response studies were done with the following standard procedure. First, the cells were counted and dispensed at 250 cells/well into 384-well microplates with compound. The cells were incubated for 48 hours at 37 C to complete treatment, and then alamar blue was added for an additional 48 hours. Finally, alamar blue reduction was measured and the data was loaded into ORIS, our data screening acquisition platform.

[2] = tested on: H3255; test: Non Small Cell Lung Cancer proliferation assay (Alamar Blue reduction), H3255; conditions: primary screening, 10 μM compound in 1% DMSO (v/v); for inhibition at 10 µM: Homo sapiens, NCI-H3255
Experimental: as §1, §2, §3, §4, §5, §6, §7, §8, §9, §10

[3] = tested on: H2030; test: Non Small Cell Lung Cancer proliferation assay (Alamar Blue reduction), H2030; conditions: primary screening, 10 μM compound in 1% DMSO (v/v); for inhibition at 10 µM: Homo sapiens, NCI-H2030
Experimental: as §1, §2, §3, §4, §5, §6, §7, §8, §9, §10

[4] = tested on: H1650; test: Non Small Cell Lung Cancer proliferation assay (Alamar Blue reduction), H1650; conditions: primary screening, 10 μM compound in 1% DMSO (v/v); for inhibition at 10 µM: Homo sapiens, NCI-H1650
Experimental: as §1, §2, §3, §4, §5, §6, §7, §8, §9, §10

[5] = read-out: percentage inhibition H1975
[6] = read-out: percentage inhibition H3255
[7] = read-out: percentage inhibition H2030
[8] = read-out: percentage inhibition H1650
[9] = H1975, read-out: PRIMARY HTS [%] H1975 (percentage inhibition)
[10] = H3255, read-out: PRIMARY HTS [%] H3255 (percentage inhibition)
[11] = H2030, read-out: PRIMARY HTS [%] H2030 (percentage inhibition)
[12] = H1650, read-out: PRIMARY HTS [%] H1650 (percentage inhibition)

## COc1cnn(-c2cccc(C)c2)c(=O)c1Cl [compound 104325]
[1]; [5]
  inhibition at 10 µM: -12%
[2]; [6]
  inhibition at 10 µM: 4%
[3]; [7]
  inhibition at 10 µM: 2%
[4]; [8]
  inhibition at 10 µM: -31%

## COc1nn(-c2ccccc2)c(=O)c(Cl)c1Cl [compound 104332]
[1]; [5]
  inhibition at 10 µM: 99%
[2]; [6]
  inhibition at 10 µM: 82%
[3]; [7]
  inhibition at 10 µM: 87%
[4]; [8]
  inhibition at 10 µM: 51%

## COc1cnn(-c2ccc([N+](=O)[O-])cc2)c(=O)c1Cl [compound 104339]
[1]; [5]
  inhibition at 10 µM: -9%
[2]; [6]
  inhibition at 10 µM: 3%
[3]; [7]
  inhibition at 10 µM: -3%
[4]; [8]
  inhibition at 10 µM: -21%

## COc1cnn(-c2ccccc2)c(=O)c1Cl [compound 104386]
[1]; [5]
  inhibition at 10 µM: -11%
[2]; [6]
  inhibition at 10 µM: 0%
[3]; [7]
  inhibition at 10 µM: 6%
[4]; [8]
  inhibition at 10 µM: -12%

## COc1cnn(-c2cccc(Cl)c2)c(=O)c1Cl [compound 104390]
[1]; [5]
  inhibition at 10 µM: 4%
[2]; [6]
  inhibition at 10 µM: 34%
[3]; [7]
  inhibition at 10 µM: -6%
[4]; [8]
  inhibition at 10 µM: 15%

## COc1c(Cl)cnn(-c2cccc(C)c2)c1=O [compound 104415]
[1]; [5]
  inhibition at 10 µM: 15%
[2]; [6]
  inhibition at 10 µM: 9%
[3]; [7]
  inhibition at 10 µM: -3%
[4]; [8]
  inhibition at 10 µM: -20%

## CSc1cnn(-c2ccccc2)c(=O)c1SC [compound 104423]
[1]; [5]
  inhibition at 10 µM: -20%
[2]; [6]
  inhibition at 10 µM: 1%
[3]; [7]
  inhibition at 10 µM: -3%
[4]; [8]
  inhibition at 10 µM: -11%

## Cc1ccc(C(=O)Nc2ccc3ccccc3c2)o1 [compound 105503]
[1]; [9]
  inhibition at 10 µM: -13%
[2]; [10]
  inhibition at 10 µM: 0%
[3]; [11]
  inhibition at 10 µM: -7%
[4]; [12]
  inhibition at 10 µM: -10%

## Cc1ccc([N+](=O)[O-])cc1NC(=O)c1ccco1 [compound 107911]
[1]; [9]
  inhibition at 10 µM: -15%
[2]; [10]
  inhibition at 10 µM: 7%
[3]; [11]
  inhibition at 10 µM: 2%
[4]; [12]
  inhibition at 10 µM: 8%

## Cc1cccnc1NC(=O)c1ccc([N+](=O)[O-])o1 [compound 108321]
[1]; H1975
  PRIMARY HTS [%] H1975 (percentage inhibition): −7%
[2]; H3255
  PRIMARY HTS [%] H3255 (percentage inhibition): 2%
[3]; H2030
  PRIMARY HTS [%] H2030 (percentage inhibition): 6%
[4]; H1650
  PRIMARY HTS [%] H1650 (percentage inhibition): 38%

## O=C(Nc1ccc(NC(=O)c2ccc(Cl)cc2Cl)cc1)c1cc2ccccc2o1 [compound 109007]
[1]; [9]
  inhibition at 10 µM: -3%
[2]; [10]
  inhibition at 10 µM: 1%
[3]; [11]
  inhibition at 10 µM: 3%
[4]; [12]
  inhibition at 10 µM: -6%

## COc1c(Cl)cnn(-c2ccc(Cl)c(C(F)(F)F)c2)c1=O [compound 174405]
[1]; [5]
  inhibition at 10 µM: 28%
[2]; [6]
  inhibition at 10 µM: 32%
[3]; [7]
  inhibition at 10 µM: -9%
[4]; [8]
  inhibition at 10 µM: 13%

## CCSc1cnn(-c2ccccc2)c(=O)c1SCC [compound 174406]
[1]; [5]
  inhibition at 10 µM: 3%
[2]; [6]
  inhibition at 10 µM: 8%
[3]; [7]
  inhibition at 10 µM: -9%
[4]; [8]
  inhibition at 10 µM: 18%

## O=C(COc1cnn(-c2ccccc2)c(=O)c1Cl)c1ccc(Br)cc1 [compound 176702]
[1]; [5]
  inhibition at 10 µM: 26%
[2]; [6]
  inhibition at 10 µM: -21%
[3]; [7]
  inhibition at 10 µM: -14%
[4]; [8]
  inhibition at 10 µM: 29%

## COc1ccc(-n2nc(-n3cnc4ccccc43)c(C)c(C#N)c2=O)cc1 [compound 176963]
[1]; [5]
  inhibition at 10 µM: -5%
[2]; [6]
  inhibition at 10 µM: 17%
[3]; [7]
  inhibition at 10 µM: 4%
[4]; [8]
  inhibition at 10 µM: 11%

## O=C(COc1cnn(-c2ccccc2)c(=O)c1Cl)c1ccc(Cl)cc1 [compound 177215]
[1]; [5]
  inhibition at 10 µM: 25%
[2]; [6]
  inhibition at 10 µM: 13%
[3]; [7]
  inhibition at 10 µM: -9%
[4]; [8]
  inhibition at 10 µM: 6%

## O=c1c(Sc2ccc(Cl)cc2)cc(Cl)nn1-c1ccccc1 [compound 177261]
[1]; [5]
  inhibition at 10 µM: 16%
[2]; [6]
  inhibition at 10 µM: 8%
[3]; [7]
  inhibition at 10 µM: -8%
[4]; [8]
  inhibition at 10 µM: 14%
